Assay results reported in patent US8163793B2, “Proline derivatives” (Hoffman-La Roche Inc., priority 2009, dated 2012).

target: Cathepsin S (UniProt P25774); test: Cathepsin enzyme inhibition assay (fluorogenic peptide substrate Z-Val-Val-Arg-AMC), Cathepsin S; format: biochemical, human and mouse; settings: enzyme 1 nM, substrate 20 μM, pH 6.5; read-out: CatS IC50
Protocol: (§1) Cathepsin Enzyme Inhibition Assay
(§2) Enzyme activity is measured by observing the increase in fluorescence intensity caused by cleavage of a peptide substrate containing a fluorophore whose emission is quenched in the intact peptide.
(§3) Assay buffer: 100 mM potassium phosphate pH 6.5, EDTA-Na 5 mM, Triton X-100 0.001%, DDT 5 mM.
(§4) Enzymes (all at 1 nM): human and mouse Cathepsin S, Cat K, Cat B, Cat L Substrate (20 μM): Z-Val-Val-Arg-AMC, except for Cat K which uses Z-Leu-Arg-AMC (both from Bachem).
(§5) AMC=7-Amino-4-Methyl-Coumarin.
Enzyme is added to the substance dilutions in 96-well microtitre plates and the reaction is started with substrate. […] IC50 are calculated by standard methods. The results are expressed in μM in the following table.

Row | Compound | IC50 [nM]
1 | Cc1cc(N2C[C@H](S(=O)(=O)c3ccc(N4CCN(C)CC4)cc3C(F)(F)F)C[C@H]2C(=O)NC2(C#N)CC2)n(C2CCOCC2)n1 [Example 404, (2S,4R)-4-[4-(4-Methyl-piperazin-1-yl)-2-trifluoromethyl-benzenesulfonyl]-1-[5-methyl-2-(tetrahydro-pyran-4-yl)-2H-pyrazol-3-yl]-pyrrolidine-2-carboxylic acid (1-cyano-cyclopropyl)-amide] | 0.405
2 | Cc1nccn1-c1ccc(S(=O)(=O)[C@@H]2C[C@@H](C(=O)NC3(C#N)CC3)N(C(=O)C3(c4ccc(Cl)cc4)CC3)C2)c(Cl)c1 [Example 326, (2S,4R)-4-[2-Chloro-4-(2-methyl-imidazol-1-yl)-benzenesulfonyl]-1-[1-(4-chloro-phenyl)-cyclopropanecarbonyl]-pyrrolidine-2-carboxylic acid (1-cyano-cyclopropyl)-amide] | 0.18
3 | N#CC1(NC(=O)[C@@H]2C[C@@H](S(=O)(=O)c3ccc(N4CCN(C5CC5)CC4)cc3Cl)CN2C(=O)C2(c3ccc(Cl)cc3)CC2)CC1 [Example 330, (2S,4R)-4-[2-Chloro-4-(4-cyclopropyl-piperazin-1-yl)-benzenesulfonyl]-1-[1-(4-chloro-phenyl)-cyclopropanecarbonyl]-pyrrolidine-2-carboxylic acid (1-cyano-cyclopropyl)-amide] | 0.08
4 | Cc1ccc(C2(C(=O)N3C[C@H](S(=O)(=O)c4ccccc4Cl)C[C@H]3C(=O)NC3(C#N)CC3)CC2)cc1 [Example 438, (2S,4R)-4-(2-chlorophenylsulfonyl)-N-(1-cyanocyclopropyl)-1-(1-p-tolylcyclopropane-carbonyl)pyrrolidine-2-carboxamide] | 0.52
5 | N#CC1(NC(=O)[C@@H]2C[C@@H](S(=O)(=O)c3ccc(-n4ccnc4)cc3Cl)CN2C(=O)C2(c3ccc(Cl)cc3)CC2)CC1 [Example 325, (2S,4R)-4-(2-Chloro-4-imidazol-1-yl-benzenesulfonyl)-1-[1-(4-chloro-phenyl)-cyclopropanecarbonyl]-pyrrolidine-2-carboxylic acid (1-cyano-cyclopropyl)-amide] | 0.08
6 | Cc1cc(N2C[C@H](S(=O)(=O)c3ccccc3C(F)(F)F)C[C@H]2C(=O)NC2(C#N)CC2)nn1C [Example 255, (2S,4R)-1-(1,5-Dimethyl-1H-pyrazol-3-yl)-4-(2-trifluoromethyl-benzenesulfonyl)-pyrrolidine-2-carboxylic acid (1-cyano-cyclopropyl)-amide] | 5.65
7 | CN1CCN(c2ccc(S(=O)(=O)[C@@H]3C[C@@H](C(=O)NC4(C#N)CC4)N(C(=O)C4(c5ccc(Cl)cc5)CC4)C3)c(Cl)c2)CC1 [Example 324, (2S,4R)-4-[2-Chloro-4-(4-methyl-piperazin-1-yl)-benzenesulfonyl]-1-[1-(4-chloro-phenyl)-cyclopropanecarbonyl]-pyrrolidine-2-carboxylic acid (1-cyano-cyclopropyl)-amide] | 0.09
8 | N#CC1(NC(=O)[C@@H]2C[C@@H](S(=O)(=O)c3ccc(N4CCN(CC(F)(F)F)CC4)cc3Cl)CN2C(=O)C2(C(F)(F)F)CC2)CC1 [Example 291, (2S,4R)-4-{2-Chloro-4-[4-(2,2,2-trifluoro-ethyl)-piperazin-1-yl]-benzenesulfonyl}-1-(1-trifluoromethyl-cyclopropanecarbonyl)-pyrrolidine-2-carboxylic acid (1-cyano-cyclopropyl)-amide] | 14.7
9 | CC(C)(C)OC(=O)N1C[C@H](S(=O)(=O)c2c(Cl)cccc2Cl)C[C@H]1C(=O)NC1(C#N)CC1 [Example 47, (2S,4R)-2-(1-Cyano-cyclopropylcarbamoyl)-4-(2,6-dichloro-benzenesulfonyl)-pyrrolidine-1-carboxylic acid tert-butyl ester] | 1.4
10 | Cc1cc(N2C[C@H](S(=O)(=O)c3ccc(N4CC(F)(F)C4)cc3C(F)(F)F)C[C@H]2C(=O)NC2(C#N)CC2)n(C2CCOCC2)n1 [Example 403, (2S,4R)-4-[4-(3,3-Difluoro-azetidin-1-yl)-2-trifluoromethyl-benzenesulfonyl]-1-[5-methyl-2-(tetrahydro-pyran-4-yl)-2H-pyrazol-3-yl]-pyrrolidine-2-carboxylic acid (1-cyano-cyclopropyl)-amide] | 0.49
11 | CC(C)(C)N1CCN(c2ccc(S(=O)(=O)[C@@H]3C[C@@H](C(=O)NC4(C#N)CC4)N(C(=O)C4(c5ccc(Cl)cc5)CC4)C3)c(Cl)c2)CC1 [Example 329, (2S,4R)-4-[4-(4-tert-Butyl-piperazin-1-yl)-2-chloro-benzenesulfonyl]-1-[1-(4-chloro-phenyl)-cyclopropanecarbonyl]-pyrrolidine-2-carboxylic acid (1-cyano-cyclopropyl)-amide] | 0.115
12 | Cc1cc(N2C[C@H](S(=O)(=O)c3ccccc3C(F)(F)F)C[C@H]2C(=O)NC2(C#N)CC2)n[nH]1 [Example 286, (2S,4R)-1-(5-Methyl-1H-pyrazol-3-yl)-4-(2-trifluoromethyl-benzenesulfonyl)-pyrrolidine-2-carboxylic acid (1-cyano-cyclopropyl)-amide] | 15
13 | CC(C)c1nccn1-c1ccc(S(=O)(=O)[C@@H]2C[C@@H](C(=O)NC3(C#N)CC3)N(C(=O)C3(c4ccc(Cl)cc4)CC3)C2)c(Cl)c1 [Example 336, (2S,4R)-4-[2-Chloro-4-(2-isopropyl-imidazol-1-yl)-benzenesulfonyl]-1-[1-(4-chloro-phenyl)-cyclopropanecarbonyl]-pyrrolidine-2-carboxylic acid (1-cyano-cyclopropyl)-amide] | 0.33

Second part, the compound after the results:

Row | IC50 [nM] | Compound
14 | 19.7 | CN1CCN(c2ccc(S(=O)(=O)[C@@H]3CC(C(=O)NC4(C#N)CC4)N(C(=O)C4(C(F)(F)F)CC4)C3)c(Cl)c2)CC1 (stereo partly drawn) [Example 305, (R)-4-[2-Chloro-4-(4-methyl-piperazin-1-yl)-benzenesulfonyl]-1-(1-trifluoromethyl-cyclopropanecarbonyl)-pyrrolidine-2-carboxylic acid (1-cyano-cyclopropyl)-amide]
15 | 0.33 | N#CC1(NC(=O)[C@@H]2C[C@@H](S(=O)(=O)c3ccc(-c4ccc(F)cc4F)cc3C(F)(F)F)CN2C(=O)C2(C(F)(F)F)CC2)CC1 [Example 263, (2S,4R)-4-(2′,4′-Difluoro-3-trifluoromethyl-biphenyl-4-sulfonyl)-1-(1-trifluoromethyl-cyclopropanecarbonyl)-pyrrolidine-2-carboxylic acid (1-cyano-cyclopropyl)-amide]
16 | 0.195 | N#CC1(NC(=O)[C@@H]2C[C@@H](S(=O)(=O)c3ccc(F)cc3Cl)CN2C(=O)C2(c3ccc(Cl)cc3)CC2)CC1 [Example 312, (2S,4R)-4-(2-Chloro-4-fluoro-benzenesulfonyl)-1-[1-(4-chloro-phenyl)-cyclopropanecarbonyl]-pyrrolidine-2-carboxylic acid (1-cyano-cyclopropyl)-amide]
17 | 0.2 | N#CC1(NC(=O)[C@@H]2C[C@@H](S(=O)(=O)c3ccccc3Cl)CN2C(=O)C2(c3ccc(Cl)cc3)CC2)CC1 [Example 215, (2S,4R)-4-(2-Chloro-benzenesulfonyl)-1-[1-(4-chloro-phenyl)-cyclopropanecarbonyl]-pyrrolidine-2-carboxylic acid (1-cyano-cyclopropyl)-amide]
18 | 0.175 | N#CC1(NC(=O)[C@@H]2C[C@@H](S(=O)(=O)c3ccc(-n4cccn4)cc3Cl)CN2C(=O)C2(c3ccc(Cl)cc3)CC2)CC1 [Example 327, (2S,4R)-1-[1-(4-Chloro-phenyl)-cyclopropanecarbonyl]-4-(2-chloro-4-pyrazol-1-yl-benzenesulfonyl)-pyrrolidine-2-carboxylic acid (1-cyano-cyclopropyl)-amide]
19 | 61900 | N#CC1(NC(=O)[C@@H]2C[C@@H](S(=O)(=O)Cc3ccccc3)CN2C(=O)C2(c3ccc(Cl)cc3)CC2)CC1 [Example 458, (2S,4R)-4-(benzylsulfonyl)-1-(1-(4-chlorophenyl)cyclopropanecarbonyl)-N-(1-cyanocyclopropyl)pyrrolidine-2-carboxamide]

target: Cat L (UniProt P07711); test: Cathepsin enzyme inhibition assay (fluorogenic peptide substrate Z-Val-Val-Arg-AMC), Cathepsin L; format: biochemical, human and mouse; settings: enzyme 1 nM, substrate 20 μM, pH 6.5; read-out: CatL IC50
Protocol: as §1, §2, §3, §4, §5
Excitation 360 nm, Emission 465 nm.
Enzyme is added to the substance dilutions in 96-well microtitre plates and the reaction is started with substrate. Fluorescence emission is measured over 20 minutes, during which time a linear increase is observed in the absence of inhibitor. IC50 are calculated by standard methods. The results are expressed in μM in the following table.

Row | Compound | IC50 [µM]
20 | N#CC1(NC(=O)[C@@H]2C[C@@H](S(=O)(=O)c3ccccc3C(F)(F)F)CN2c2ccnc(C(F)(F)F)n2)CC1 [Example 185, (2S,4R)-4-(2-Trifluoromethyl-benzenesulfonyl)-1-(2-trifluoromethyl-pyrimidin-4-yl)-pyrrolidine-2-carboxylic acid (1-cyano-cyclopropyl)-amide] | ≥ 25
21 | N#CC1(NC(=O)[C@@H]2C[C@@H](S(=O)(=O)c3ccccc3C(F)(F)F)CN2c2ncccn2)CC1 [Example 408, (2S,4R)-1-Pyrimidin-2-yl-4-(2-trifluoromethyl-benzenesulfonyl)-pyrrolidine-2-carboxylic acid (1-cyano-cyclopropyl)-amide] | ≥ 25

More lines, now with the values ahead:

Row | IC50 [µM] | Compound
22 | ≥ 25 | N#CCNC(=O)[C@@H]1C[C@@H](S(=O)(=O)c2ccccc2C(F)(F)F)CN1c1ccccc1 [Example 151, (2S,4R)-1-Phenyl-4-(2-trifluoromethyl-benzenesulfonyl)-pyrrolidine-2-carboxylic acid cyanomethyl-amide]
23 | ≥ 25 | N#CC1(NC(=O)[C@@H]2C[C@@H](S(=O)(=O)c3ccccc3C(F)(F)F)CN2c2ncccc2C(F)(F)F)CC1 [Example 186, (2S,4R)-4-(2-Trifluoromethyl-benzenesulfonyl)-1-(3-trifluoromethyl-pyridin-2-yl)-pyrrolidine-2-carboxylic acid (1-cyano-cyclopropyl)-amide]
